From BigSolDB 2.1

Cc1nc(N)nc(N)n1
solubility (mole fraction)
Details	283.15 K	288.15 K	293.15 K	298.15 K	303.15 K	308.15 K	313.15 K	318.15 K	323.15 K
in 1,4-dioxane	0.000584	0.000676	0.000782	0.000899	0.00107	0.00126	0.00152	0.00177	0.00205
in DMF	0.00103	0.0012	0.00133	0.00151	0.0018	0.00209	0.00247	0.00283	0.00325
in acetonitrile	9.52e-05	0.000117	0.000141	0.00018	0.000228	0.000287	0.000345	0.000426	0.000523
in ethanol	0.000226	0.000258	0.000315	0.000386	0.000485	0.000592	0.000688	0.000845	0.000999
in ethyl acetate	0.000671	0.00078	0.000928	0.00104	0.00125	0.00142	0.00171	0.00198	0.00229
in ethylene glycol	0.000797	0.000935	0.00109	0.00121	0.00145	0.00164	0.00193	0.00225	0.00259
in isobutanol	0.000392	0.000454	0.000551	0.000663	0.000792	0.000931	0.0011	0.00127	0.00153
in isopropanol	0.00027	0.000325	0.000393	0.00047	0.000587	0.000698	0.000808	0.000973	0.00115
in methanol	0.000159	0.000192	0.000235	0.000289	0.000365	0.000434	0.000553	0.000636	0.000782
in n-butanol	0.000477	0.000536	0.00064	0.000764	0.000919	0.00111	0.00131	0.0015	0.00177
in n-propanol	0.000321	0.000385	0.000452	0.00054	0.000689	0.000836	0.000985	0.00115	0.00132
in water	0.000122	0.000146	0.000182	0.000228	0.000285	0.000362	0.000426	0.000521	0.000633
